Test results reported in ChEMBL document CHEMBL1154509, “Synthesis and in vitro biological activity of retinyl polyhydroxybenzoates, novel hybrid retinoid derivatives” (Bioorg Med Chem Lett, 2009).

Assays:
[1] = Toxicity against human dermal fibroblasts; type: cell-based, Fibroblast
[2] = Anti-aging activity in human dermal fibroblasts assessed as rate of procollagen formation at 0.0005 weight % concentration relative to retinol; type: functional, Fibroblast
B16-F10 [3] = assay: Inhibition of rate of melanin formation in mouse B16/F10 cells at 5 uM relative to control; type: functional
Fibroblast [4] = assay: Skin whitening activity in […] assessed as inhibition of melanin formation at 0.001 weight % concentration relative to resveratrol; type: functional
[5] = Anti-aging activity in human dermal fibroblasts assessed as expression rate of procollagen type 1 formation at 10 uM relative to control; type: functional, Fibroblast
[6] = target: T1, Tyrosinase (Mus musculus) (UniProt P11344); assay: Inhibition of tyrosinase activity in mouse B16/F10 cells at 5 uM relative to control; type: cell-based
T1 sequence (whole entry): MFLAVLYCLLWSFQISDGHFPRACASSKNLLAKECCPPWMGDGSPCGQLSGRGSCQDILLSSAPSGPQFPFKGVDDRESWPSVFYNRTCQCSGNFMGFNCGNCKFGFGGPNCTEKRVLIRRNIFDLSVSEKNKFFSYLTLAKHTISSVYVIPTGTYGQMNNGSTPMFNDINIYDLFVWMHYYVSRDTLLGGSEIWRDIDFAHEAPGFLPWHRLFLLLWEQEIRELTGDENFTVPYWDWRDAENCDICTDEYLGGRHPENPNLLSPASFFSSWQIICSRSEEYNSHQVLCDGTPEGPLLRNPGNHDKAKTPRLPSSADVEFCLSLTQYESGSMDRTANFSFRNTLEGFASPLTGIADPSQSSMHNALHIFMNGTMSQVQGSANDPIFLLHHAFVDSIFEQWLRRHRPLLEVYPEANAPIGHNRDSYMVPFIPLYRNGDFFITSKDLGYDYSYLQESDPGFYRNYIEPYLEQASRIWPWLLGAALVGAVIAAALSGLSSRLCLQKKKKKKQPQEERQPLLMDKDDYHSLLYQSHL

[7] = Anti-aging activity in human dermal fibroblasts assessed as inhibition rate of MMP1 expression at 10 uM relative to control; type: functional; conditions: Fibroblast
[8] = Toxicity against mouse B16/F10 cells assessed as cell viability at 5 uM relative to control; type: cell-based; conditions: read-out: Activity
[9] = Toxicity against human dermal fibroblasts assessed as cell viability at 10 uM relative to control; type: cell-based, Fibroblast; conditions: read-out: Activity
[10] = Anti-aging activity in human dermal fibroblasts assessed as rate of procollagen formation at 0.001 weight % concentration relative to retinol; type: functional, Fibroblast
[11] = target: T1, Tyrosinase (Mus musculus); assay: Inhibition of tyrosinase activity in mouse B16/F10 cells at 10 ppm relative to control; type: cell-based
B16-F10 [12] = assay: Inhibition of rate of melanin formation in mouse B16/F10 cells at 10 ppm relative to control; type: functional
[13] = Toxicity against mouse B16/F10 cells assessed as cell viability at 10 ppm relative to control; type: cell-based; conditions: read-out: Activity
Fibroblast [14] = assay: Skin whitening activity in […] assessed as inhibition of melanin formation at 0.002 weight % concentration relative to resveratrol; type: functional
[15] = Anti-aging activity in human dermal fibroblasts assessed as rate of procollagen formation at 0.002 weight % concentration relative to retinol; type: functional, Fibroblast
[16] = Anti-aging activity in human dermal fibroblasts assessed as rate of procollagen formation at 0.005 weight % concentration relative to retinol; type: functional, Fibroblast
Fibroblast [17] = assay: Increase of collagen synthesis in human dermal fibroblasts at 5 uM; type: functional
[18] = Thermal stability at 40 degC assessed as compound degradation after 4 weeks by HPLC; type: physicochemical
[19] = Inhibition of elastase at 10 uM
[20] = Inhibition of elastase at 5 uM
[21] = target: T2, Tyrosinase (Homo sapiens) (UniProt P14679); assay: Inhibition of tyrosinase at 5 uM
T2 sequence (whole entry): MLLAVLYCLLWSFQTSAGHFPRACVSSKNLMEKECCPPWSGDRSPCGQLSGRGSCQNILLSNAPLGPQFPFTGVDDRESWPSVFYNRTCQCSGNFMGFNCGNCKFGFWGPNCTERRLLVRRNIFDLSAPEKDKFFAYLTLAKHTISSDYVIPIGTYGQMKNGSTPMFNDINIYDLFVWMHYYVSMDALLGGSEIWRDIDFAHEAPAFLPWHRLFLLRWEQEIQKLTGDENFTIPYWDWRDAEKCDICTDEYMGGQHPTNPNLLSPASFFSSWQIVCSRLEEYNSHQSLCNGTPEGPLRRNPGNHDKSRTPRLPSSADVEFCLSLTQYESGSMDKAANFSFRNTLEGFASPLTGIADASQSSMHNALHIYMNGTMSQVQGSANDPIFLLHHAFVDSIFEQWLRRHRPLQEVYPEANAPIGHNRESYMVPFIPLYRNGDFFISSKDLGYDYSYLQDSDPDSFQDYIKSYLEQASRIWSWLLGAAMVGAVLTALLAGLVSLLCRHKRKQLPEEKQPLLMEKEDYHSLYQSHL

Fibroblast [22] = assay: Inhibition of melanogenesis in […] at 5 uM; type: functional
[23] = Anti-aging activity in human dermal fibroblasts assessed as inhibition rate of MMP1 expression at 1 uM relative to control; type: functional; conditions: Fibroblast
[24] = Toxicity against human dermal fibroblasts assessed as cell viability at 1 uM relative to control; type: cell-based, Fibroblast; conditions: read-out: Activity
[25] = Anti-aging activity in human dermal fibroblasts assessed as expression rate of procollagen type 1 formation at 1 uM relative to control; type: functional, Fibroblast
[26] = Toxicity against human dermal fibroblasts assessed as cell viability at 200 uM relative to control; type: cell-based, Fibroblast; conditions: read-out: Activity
[27] = Antioxidant activity assessed as free radical scavenging activity at 10 uM; type: functional
[28] = Anti-aging activity in human dermal fibroblasts assessed as expression rate of procollagen type 1 formation at 200 uM relative to control; type: functional, Fibroblast
[29] = Antioxidant activity assessed as free radical scavenging activity at 5 uM; type: functional
[30] = Anti-aging activity in human dermal fibroblasts assessed as rate of procollagen formation at 0.0002 weight % concentration relative to retinol; type: functional, Fibroblast
[31] = Anti-aging activity in human dermal fibroblasts assessed as expression rate of procollagen type 1 formation at 5 uM relative to control; type: functional, Fibroblast
Fibroblast [32] = assay: Skin whitening activity in […] assessed as inhibition of melanin formation at 0.0002 weight % concentration relative to resveratrol; type: functional
[33] = Anti-aging activity in human dermal fibroblasts assessed as inhibition rate of MMP1 expression at 5 uM relative to control; type: functional; conditions: Fibroblast
[34] = Toxicity against human dermal fibroblasts assessed as cell viability at 5 uM relative to control; type: cell-based, Fibroblast; conditions: read-out: Activity
[35] = Anti-aging activity in human dermal fibroblasts assessed as rate of procollagen formation at 0.0001 weight % concentration relative to retinol; type: functional, Fibroblast

COc1cc(O)c(C(=O)OC/C=C(C)/C=C/C=C(C)/C=C/C2=CCCCC2(C)C)c(O)c1
IC50 [1]: 14 µM
Activity [2]: 55%
inhibition at 5 µM (B16-F10 [3]): 9.5%
inhibition (INH) (Fibroblast [4]): 95%
Activity [5]: 89.2%
inhibition [6]: 41.9%
inhibition at 10 µM [7]: -17.4%
viability at 5 µM [8]: 102%
viability at 10 µM [9]: 92.6%

COc1cc(NC(C)=O)cc(C(=O)OC/C=C(C)/C=C/C=C(C)/C=C/C2=CCCCC2(C)C)c1O
IC50 [1]: < 10 µM
Activity [10]: 15%

COc1ccc(O)c(C(=O)OC/C=C(C)/C=C/C=C(C)/C=C/C2=CCCCC2(C)C)c1
IC50 [1]: 570 µM
inhibition (INH) (Fibroblast [4]): 30%
Activity [10]: 81%

CC(/C=C/C1=CCCCC1(C)C)=C\C=C\C(C)=C\COC(=O)c1cc(O)ccc1O
IC50 [1]: 14 µM
Activity [2]: 55%
inhibition at 5 µM (B16-F10 [3]): 25.8%
inhibition (INH) (Fibroblast [4]): 95%
Activity [5]: 78.7%
inhibition [6]: 31.3%
inhibition at 10 µM [7]: -32.2%
viability at 5 µM [8]: 99.7%
viability at 10 µM [9]: 91.8%

CC1=C(/C=C/C(C)=C/C=C/C(C)=C/C(=O)O)C(C)(C)CCC1 [TRETINOIN]
inhibition at 10 µM [7]: 59.2%
viability at 10 µM [9]: 105%

COc1cc(/C=C/C(=O)Oc2cc(C)ccc2C(C)C)cc(OC)c1OC
inhibition [11]: 46.9%
inhibition at 10 ppm (B16-F10 [12]): 39.3%
viability at 10 ppm [13]: 95.4%

CC(/C=C/C1=CCCCC1(C)C)=C\C=C\C(C)=C\COC(=O)c1ccccc1O
IC50 [1]: 150 µM
inhibition (INH) (Fibroblast [14]): 34%
Activity [15]: 46%

CC(/C=C/C1=CCCCC1(C)C)=C\C=C\C(C)=C\COC(=O)c1ccc(O)cc1O
IC50 [1]: 120 µM
inhibition (INH) (Fibroblast [4]): 41%
Activity [10]: 26%

COc1cccc(O)c1C(=O)OC/C=C(C)/C=C/C=C(C)/C=C/C1=CCCCC1(C)C
IC50 [1]: 230 µM
inhibition (INH) (Fibroblast [4]): 28%
Activity [16]: 54%

CC1=C(/C=C/C(C)=C/C=C/C(C)=C/CO)C(C)(C)CCC1 [RETINOL]
IC50 [1]: 50 µM
Activity (Fibroblast [17]): 33.4%
degraded at 672 h ([18]; read-out: Activity): 70%

CC(/C=C/C1=CCCCC1(C)C)=C\C=C\C(C)=C\COC(=O)c1cc(O)c2ccccc2c1O
IC50 [1]: 420 µM
Activity [2]: 37%
inhibition (INH) (Fibroblast [4]): 18%

C[C@H]1[C@H](C)CC[C@]2(C(=O)O)CC[C@]3(C)C(=CC[C@@H]4[C@@]5(C)CC[C@H](O)C(C)(C)[C@@H]5CC[C@]43C)[C@H]12 [URSOLIC ACID]
IC50 [1]: 3.5 µM
inhibition [19]: 14.1%
inhibition [20]: 10.3%

OC[C@H]1O[C@@H](Oc2ccc(O)cc2)[C@H](O)[C@@H](O)[C@@H]1O [ARBUTIN]
inhibition [21]: -1.5%
inhibition at 5 µM (Fibroblast [22]): 5.5%

CC(/C=C/C1=CCCCC1(C)C)=C\C=C\C(C)=C\COC(=O)c1c(O)cccc1O
IC50 [1]: 14 µM
Activity [2]: 102%
inhibition at 5 µM (B16-F10 [3]): 12.7%
inhibition at 1 µM [23]: -63%
inhibition (INH) (Fibroblast [4]): 112%
viability at 1 µM [24]: 88.1%
inhibition [6]: 45.4%
viability at 5 µM [8]: 102%
Activity [25]: 85.5%

COc1cccc(C(=O)OC/C=C(C)/C=C/C=C(C)/C=C/C2=CCCCC2(C)C)c1O
IC50 [1]: 27 µM
Activity [2]: 116%
inhibition at 5 µM (B16-F10 [3]): 16.2%
inhibition (INH) (Fibroblast [4]): 22%
Activity [5]: 70%
inhibition [6]: 38.1%
inhibition at 10 µM [7]: 16.9%
viability at 5 µM [8]: 107%
viability at 10 µM [9]: 126%

O=C1O[C@H]([C@@H](O)CO)C(O)=C1O [ASCORBIC ACID]
viability at 200 µM [26]: 95.4%
Activity [27]: 38.6%
Activity [28]: 127.5%
Activity [29]: 19.1%

CC(=O)Oc1ccccc1C(=O)OC/C=C(C)/C=C/C=C(C)/C=C/C1=CCCCC1(C)C
IC50 [1]: 150 µM
inhibition (INH) (Fibroblast [14]): 32%
Activity [15]: 61%

CC(/C=C/C1=CCCCC1(C)C)=C\C=C\C(C)=C\COC(=O)c1cc(O)c(O)c(O)c1
IC50 [1]: 35 µM
Activity [30]: 91%
inhibition at 5 µM (B16-F10 [3]): 27.5%
inhibition [19]: 15.3%
Activity [27]: 62.8%
Activity [31]: 115.9%
inhibition (INH) (Fibroblast [32]): 73%
Activity [29]: 31.1%
inhibition [6]: 49.6%
viability at 5 µM [8]: 83.9%
inhibition [20]: 12.3%
inhibition [21]: 2.5%
Activity (Fibroblast [17]): 13.5%
Stability ([18]; 672 h): Stable
inhibition at 5 µM [33]: -19.3%
inhibition at 5 µM (Fibroblast [22]): 18.6%
viability at 5 µM [34]: 84.2%

CC(/C=C/C1=CCCCC1(C)C)=C\C=C\C(C)=C\COC(=O)c1cccc(O)c1O
IC50 [1]: < 10 µM
Activity [35]: 66%
inhibition at 5 µM (B16-F10 [3]): 18.6%
inhibition (INH) (Fibroblast [4]): 105%
viability at 1 µM [24]: 71.8%
inhibition [6]: 36.7%
viability at 5 µM [8]: 97%

Oc1ccc(/C=C/c2cc(O)cc(O)c2)cc1 [RESVERATROL]
IC50 [1]: 900 µM
Activity [27]: 16.7%
Activity [29]: 5.6%
inhibition [21]: 36.2%
inhibition at 5 µM (Fibroblast [22]): 25.5%

O=C(O[C@@H]1Cc2c(O)cc(O)cc2O[C@@H]1c1cc(O)c(O)c(O)c1)c1cc(O)c(O)c(O)c1 [EPIGALOCATECHIN GALLATE]
inhibition at 10 µM [7]: 46.7%
viability at 10 µM [9]: 95.2%
